Ten compounds from patent US20240376097A1, “BCL-2 Inhibitor” (BeiGene Ltd., priority 2020, published 2024) can be followed below.

In assay [1] the target is Recombinant human Bcl-2 protein (Homo sapiens (Human), UniProt P10415). Kind of assay: Bcl-2 TR-FRET Assay. In kind it is binding. To be noted: Bcl-2 wild type, TR-FRET; read-out: Biochemical assay (IC50, nM) Bcl-2 WT. In a few lines: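 Compounds were pre-incubated with 0.05 nM recombinant Bcl-2 for 0.5 h at room temperature in potassium phosphate buffer, pH 7.5. FITC-Bak peptide (0.5 nM) and Tb-cryptate antibody were then added for 1 h. Percent inhibition from TR-FRET signals gave IC50 values.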
Background: TR-FRET usually uses a lanthanide donor and a delayed reading to cut background.

The target of assay [2] is recombinant human Bcl-2-G101V protein (Homo sapiens (Human), UniProt P10415, G101V). The assay can be described thus: Bcl-2-G101V TR-FRET Assay. In kind it is binding. To be noted: Bcl-2 G101V mutant, TR-FRET; read-out: Biochemical assay (IC50, nM) Bcl-2 G101V. In short, it runs like this:
(§1)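 IC50 values derive from four-parameter logistic fitting of percent inhibition data. That inhibition of ligand binding to Bcl-2-G101V is computed from the 490 nm/520 nm TR-FRET ratio under 337 nm excitation, over a rising compound concentration series.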

The test system of assay [3] is recombinant human Bcl-2-G101V protein. The assay can be described thus: Bcl-2-G101V TR-FRET Assay. In kind it is binding. To be noted: ratio of biochemical IC50 Bcl-2 G101V / Bcl-2 WT. In a few lines: as §1
Assay [4] has as its system BCL-2 G101V knock-in cell line H96 (derive from RS4;11). The assay can be described thus: Bcl 2-G101V Knock-In RS4;11 Cell Proliferation Assay. To be noted: Homo sapiens, RS4;11 Bcl-2 G101V knock-in clone H96, 48 hrs, CellTiter-GLO, read-out: Cellular proliferation assay (IC50, nM) RS4. In kind it is cell-based. In a few lines:
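H96, a CRISPR-generated RS4;11 clone carrying BCL2-G101V knock-in (WES/RNA-seq validated), seeded 50,000 per well and exposed 48 h at 37 °C to 10-point dilutions topping at 1 or 10 μM. Viability by CellTiter-Glo luminescence; mean IC50.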

The subject of assay [5] is RS4;11 (BCL-2 dependent acute lymphoblastic leukemia cell line). The assay can be described thus: RS4;11 Cell Proliferation Assay. To be noted: Homo sapiens, RS4-11, RS4;11 cells, read-out: Cellular proliferation assay (IC50, nM) RS4. In kind it is cell-based. In a few lines:
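RS4;11 cells, 50,000 per well in RPMI-1640 with 10% FBS, treated 48 h at 37 °C with a 10-point dilution series topping at 1 μM. Viability read by CellTiter-Glo ATP luminescence; mean IC50 reported.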

With `CC(C)c1ccccc1[C@@H]1CN(Cc2ccnc3c2OC(C)(C)CO3)CCN1C1CC2(C1)CN(c1ccc(C(=O)NS(=O)(=O)c3ccc(NC[C@H]4CC[C@](C)(O)CC4)c([N+](=O)[O-])c3)c(Oc3cnc4[nH]cc(F)c4c3)c1)C2` [Example 313, 4-(6-((R)-4-((2,2-dimethyl-2,3-dihydro-[1,4]dioxino[2,3-b]pyridin-8-yl)methyl)-2-(2-isopropylphenyl)piperazin-1-yl)-2-azaspiro[3.3]heptan-2-yl)-2-((3-fluoro-1H-pyrrolo[2,3-b]pyridin-5-yl)oxy)-N-((4-((((1r,4r)-4-hydroxy-4-methylcyclohexyl)methyl)amino)-3-nitrophenyl)sulfonyl)benzamide], the IC50 stood at 0.048 nM in assay [1], 0.19 nM in assay [2], 0.4 nM in assay [4] and 0.18 nM in assay [5]. Besides, in assay [3], the “Ratio of Bcl-2 G101V/WT” value stood at 3.9.

In the case of `CC(C)c1ccccc1[C@@H]1CN(Cc2ccnc3c2OC(C)(C)CO3)CCN1C1CC2(C1)CN(c1ccc(C(=O)NS(=O)(=O)c3ccc(NC[C@H]4CC[C@](C)(O)CC4)c([N+](=O)[O-])c3)c(Oc3cnc4[nH]ccc4c3)c1)C2` [Example 314, 2-((1H-pyrrolo[2,3-b]pyridin-5-yl)oxy)-4-(6-((R)-4-((2,2-dimethyl-2,3-dihydro-[1,4]dioxino[2,3-b]pyridin-8-yl)methyl)-2-(2-isopropylphenyl)piperazin-1-yl)-2-azaspiro[3.3]heptan-2-yl)-N-((4-((((1r,4r)-4-hydroxy-4-methylcyclohexyl)methyl)amino)-3-nitrophenyl)sulfonyl)benzamide], the IC50 in assay [1] was found to be 0.032 nM; in assay [2], 0.13 nM; in assay [4], 0.61 nM; in assay [5] it was 0.17 nM. Moreover, the “Ratio of Bcl-2 G101V/WT” value in assay [3] worked out at 4.2.

For the compound `CC(C)c1ccccc1[C@@H]1CN(Cc2cccc3c2OCC(C)(C)O3)CCN1C1CC2(C1)CN(c1ccc(C(=O)NS(=O)(=O)c3ccc(NC[C@H]4CC[C@](C)(O)CC4)c([N+](=O)[O-])c3)c(Oc3cnc4[nH]cc(F)c4c3)c1)C2` [Example 315, 4-(6-((R)-4-((2,2-dimethyl-2,3-dihydrobenzo[b][1,4]dioxin-5-yl)methyl)-2-(2-isopropylphenyl)piperazin-1-yl)-2-azaspiro[3.3]heptan-2-yl)-2-((3-fluoro-1H-pyrrolo[2,3-b]pyridin-5-yl)oxy)-N-((4-((((1r,4r)-4-hydroxy-4-methylcyclohexyl)methyl)amino)-3-nitrophenyl)sulfonyl)benzamide], the IC50 came to 0.31 nM in assay [1], 0.99 nM in assay [2], 0.86 nM in assay [4] and 0.18 nM in assay [5]. The “Ratio of Bcl-2 G101V/WT” value in assay [3] was determined as 3.2.

Turning to `CC(C)c1ccccc1[C@@H]1CN(Cc2ccnc3c2OCC(C)(C)O3)CCN1C1CC2(C1)CN(c1ccc(C(=O)NS(=O)(=O)c3ccc(NC[C@H]4CC[C@](C)(O)CC4)c([N+](=O)[O-])c3)c(Oc3cnc4[nH]ccc4c3)c1)C2` [Example 316, 2-((1H-pyrrolo[2,3-b]pyridin-5-yl)oxy)-4-(6-((R)-4-((3,3-dimethyl-2,3-dihydro-[1,4]dioxino[2,3-b]pyridin-8-yl)methyl)-2-(2-isopropylphenyl)piperazin-1-yl)-2-azaspiro[3.3]heptan-2-yl)-N-((4-((((1r,4r)-4-hydroxy-4-methylcyclohexyl)methyl)amino)-3-nitrophenyl)sulfonyl)benzamide], the IC50 in assay [1] is 0.022 nM; in assay [2] it was 0.1 nM; in assay [4] it was 0.53 nM; in assay [5] it was 0.16 nM. For the same compound, in assay [3], the “Ratio of Bcl-2 G101V/WT” value stood at 4.5.

For `COc1cc(CN2CCN(C3CC4(C3)CN(c3ccc(C(=O)NS(=O)(=O)c5ccc(NC[C@H]6CC[C@](C)(O)CC6)c([N+](=O)[O-])c5)c(Oc5cnc6[nH]cc(F)c6c5)c3)C4)[C@H](c3ccccc3C(C)C)C2)ccc1Cl` [Example 325, 4-(6-((R)-4-(4-chloro-3-methoxybenzyl)-2-(2-isopropylphenyl)piperazin-1-yl)-2-azaspiro[3.3]heptan-2-yl)-2-((3-fluoro-1H-pyrrolo[2,3-b]pyridin-5-yl)oxy)-N-((4-((((1r,4r)-4-hydroxy-4-methylcyclohexyl)methyl)amino)-3-nitrophenyl)sulfonyl) benzamide], the IC50 in assay [1] stood at 0.49 nM; in assay [2], 0.97 nM; in assay [4], 0.53 nM; in assay [5], 0.21 nM. In addition, the “Ratio of Bcl-2 G101V/WT” value in assay [3] is reported as 2.

Consider `COc1cc(CN2CCN(C3CC4(C3)CN(c3ccc(C(=O)NS(=O)(=O)c5ccc(NC[C@H]6CC[C@](C)(O)CC6)c([N+](=O)[O-])c5)c(Oc5cnc6[nH]ccc6c5)c3)C4)[C@H](c3ccccc3C(C)C)C2)cc2c1OC(C)(C)C=C2` [Example 329, 2-((1H-pyrrolo[2,3-b]pyridin-5-yl)oxy)-N-((4-((((1r,4r)-4-hydroxy-4-methylcyclohexyl)methyl)amino)-3-nitrophenyl)sulfonyl)-4-(6-((R)-2-(2-isopropylphenyl)-4-((8-methoxy-2,2-dimethyl-2H-chromen-6-yl)methyl)piperazin-1-yl)-2-azaspiro[3.3]heptan-2-yl) benzamide], for which the IC50 is 0.15 nM in assay [1], 0.47 nM in assay [2], 1.3 nM in assay [4] and 0.25 nM in assay [5]. Also, in assay [3], the “Ratio of Bcl-2 G101V/WT” value came to 3.1.

Consider `COc1cc(CN2CCN(C3CC4(C3)CN(c3ccc(C(=O)NS(=O)(=O)c5ccc(NC[C@H]6CC[C@](C)(O)CC6)c([N+](=O)[O-])c5)c(Oc5cnc6[nH]cc(F)c6c5)c3)C4)[C@H](c3ccccc3C(C)C)C2)cc2c1OC(C)(C)C=C2` [Example 330, 2-((3-fluoro-1H-pyrrolo[2,3-b]pyridin-5-yl)oxy)-N-((4-((((1r,4r)-4-hydroxy-4-methylcyclohexyl)methyl)amino)-3-nitrophenyl)sulfonyl)-4-(6-((R)-2-(2-isopropylphenyl)-4-((8-methoxy-2,2-dimethyl-2H-chromen-6-yl)methyl)piperazin-1-yl)-2-azaspiro [3.3]heptan-2-yl)benzamide], for which the IC50 in assay [1] was determined as 0.26 nM; in assay [2], 0.62 nM; in assay [4] it was 0.79 nM; in assay [5], 0.18 nM. Also, in assay [3], the “Ratio of Bcl-2 G101V/WT” value is given as 2.4.

Regarding `COc1cc(CN2CCN(C3CC4(C3)CN(c3ccc(C(=O)NS(=O)(=O)c5ccc(NC[C@H]6CC[C@](C)(O)CC6)c([N+](=O)[O-])c5)c(Oc5cnc6[nH]ccc6c5)c3)C4)[C@H](c3ccccc3C(C)C)C2)cc2occc12` [Example 331, 2-((1H-pyrrolo[2,3-b]pyridin-5-yl)oxy)-N-((4-((((1r,4r)-4-hydroxy-4-methylcyclohexyl)methyl)amino)-3-nitrophenyl)sulfonyl)-4-(6-((R)-2-(2-isopropylphenyl)-4-((4-methoxybenzofuran-6-yl)methyl)piperazin-1-yl)-2-azaspiro[3.3]heptan-2-yl)benzamide], the IC50 in assay [1] stood at 0.29 nM; in assay [2] it was 0.62 nM; in assay [4] it was 0.69 nM; in assay [5], 0.16 nM. Further, the “Ratio of Bcl-2 G101V/WT” value in assay [3] is listed as 2.1.

Turning to `COc1cc(CN2CCN(C3CC4(C3)CN(c3ccc(C(=O)NS(=O)(=O)c5ccc(NC[C@H]6CC[C@](C)(O)CC6)c([N+](=O)[O-])c5)c(Oc5cnc6[nH]cc(F)c6c5)c3)C4)[C@H](c3ccccc3C(C)C)C2)cc2occc12` [Example 332, 2-((3-fluoro-1H-pyrrolo[2,3-b]pyridin-5-yl)oxy)-N-((4-((((1r,4r)-4-hydroxy-4-methylcyclohexyl)methyl)amino)-3-nitrophenyl)sulfonyl)-4-(6-((R)-2-(2-isopropylphenyl)-4-((4-methoxybenzofuran-6-yl)methyl)piperazin-1-yl)-2-azaspiro[3.3]heptan-2-yl)benzamide], the IC50 came out at 0.7 nM in assay [1], 1.1 nM in assay [2], 0.54 nM in assay [4] and 0.17 nM in assay [5]. The “Ratio of Bcl-2 G101V/WT” value in assay [3] was 1.6.

For the compound `COc1cc(CN2CCN(C3CC4(C3)CN(c3ccc(C(=O)NS(=O)(=O)c5ccc(NC[C@H]6CC[C@](C)(O)CC6)c([N+](=O)[O-])c5)c(Oc5cnc6[nH]cc(F)c6c5)c3)C4)[C@H](c3ccccc3C(C)C)C2)cc2c1OCCC2(C)C` [Example 333, 2-((3-fluoro-1H-pyrrolo[2,3-b]pyridin-5-yl)oxy)-N-((4-((((1r,4r)-4-hydroxy-4-methylcyclohexyl)methyl)amino)-3-nitrophenyl)sulfonyl)-4-(6-((R)-2-(2-isopropylphenyl)-4-((8-methoxy-4,4-dimethylchroman-6-yl)methyl)piperazin-1-yl)-2-azaspiro[3.3]heptan-2-yl) benzamide], the IC50 in assay [1] is 0.11 nM; in assay [2], 0.37 nM; in assay [4], 0.26 nM; in assay [5] it was 0.13 nM. Moreover, the “Ratio of Bcl-2 G101V/WT” value in assay [3] is on record as 3.2.
